Where “and” joins values, the source holds several entries; their conditions need not be identical. Equal values may be shown once. Toxic doses and inconclusive results are not listed. No stated cut-off is given here; in the data, active means T/C of 150% or more; inactive means T/C below 125%.
System: L1210 leukemia ip in BDF1 mice, survival T/C
Experiment: NCI In Vivo Anticancer Drug Screen. Data for tumor model L1210 Leukemia (intraperitoneal) in B6D2F1 (BDF1) mice
Conditions: endpoint: mean survival time, higher = longer survival
Outline: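 In this screen, tumor-bearing mice given compound are compared to those given vehicle, and their survival values are reported as a treated-to-control quotient.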

[1] = dose: 12.5 mg/kg/injection, schedule: Q01DX009 (ip), vehicle: saline
[2] = dose: 100.0 mg/kg/injection, schedule: Q01DX001 (ip), vehicle: saline
[3] = dose: 200.0 mg/kg/injection, schedule: Q01DX001 (ip), vehicle: saline
[4] = dose: 400.0 mg/kg/injection, schedule: Q01DX001 (ip), vehicle: saline
[5] = dose: 100.0 mg/kg/injection, schedule: Q01DX001 (ip), vehicle: acetone
[6] = dose: 200.0 mg/kg/injection, schedule: Q01DX001 (ip), vehicle: acetone
[7] = dose: 400.0 mg/kg/injection, schedule: Q01DX001 (ip), vehicle: acetone
[8] = dose: 25.0 mg/kg/injection, schedule: Q01DX009 (ip), vehicle: saline
[9] = dose: 50.0 mg/kg/injection, schedule: Q01DX009 (ip), vehicle: saline
[10] = dose: 100.0 mg/kg/injection, schedule: Q04DX002 (ip), vehicle: Klucel (hydroxypropylcellulose) (HPC)
[11] = dose: 200.0 mg/kg/injection, schedule: Q04DX002 (ip), vehicle: Klucel (hydroxypropylcellulose) (HPC)
[12] = dose: 400.0 mg/kg/injection, schedule: Q04DX002 (ip), vehicle: Klucel (hydroxypropylcellulose) (HPC)
[13] = dose: 100.0 mg/kg/injection, schedule: Q01DX009 (ip), vehicle: saline
[14] = dose: 100.0 mg/kg/injection, schedule: Q04DX003 (ip), vehicle: saline
[15] = dose: 200.0 mg/kg/injection, schedule: Q04DX003 (ip), vehicle: saline
[16] = dose: 400.0 mg/kg/injection, schedule: Q04DX003 (ip), vehicle: saline

Measured: T/C

COc1c(C(=O)Nc2ccc(C3=NCCN3)cc2)cccc1C(=O)Nc1ccc(C2=NCCN2)cc1
inactive: dose: 15.0 mg/kg/injection, schedule: Q01DX Z (ip), vehicle: saline 95 % of control | dose: 30.0 mg/kg/injection, schedule: Q01DX Z (ip), vehicle: saline 101 % of control

CCCCCCCCCCCCNCCCCCCCCCCCC
inactive: dose: 3.12 mg/kg/injection, schedule: Q01DX009 (ip), vehicle: saline 102 % of control | dose: 6.25 mg/kg/injection, schedule: Q01DX009 (ip), vehicle: saline 97 % of control | dose: 6.25 mg/kg/injection, schedule: Q04DX003 (ip), vehicle: acetone 100 % of control | dose: 12.5 mg/kg/injection, schedule: Q01DX001 (ip), vehicle: saline 93 % of control | [1] 102 % of control | dose: 12.5 mg/kg/injection, schedule: Q04DX003 (ip), vehicle: acetone 96 % of control | dose: 25.0 mg/kg/injection, schedule: Q01DX001 (ip), vehicle: saline 93 % of control | dose: 100.0 mg/kg/injection, schedule: Q01DX009 (ip), vehicle: other 105 % of control | dose: 200.0 mg/kg/injection, schedule: Q01DX009 (ip), vehicle: other 105 % of control | dose: 400.0 mg/kg/injection, schedule: Q01DX009 (ip), vehicle: other 93 % of control

CCCC(C)(CC)C(=O)O (stereo not drawn)
inactive: dose: 75.0 mg/kg/injection, schedule: Q01DX001 (ip), vehicle: acetone 108 % of control | dose: 150.0 mg/kg/injection, schedule: Q01DX001 (ip), vehicle: acetone 101 % of control | dose: 300.0 mg/kg/injection, schedule: Q01DX001 (ip), vehicle: acetone 98 % of control

Cn1c(=O)cc(/C=C/c2ccc(-c3ccccc3)cc2)c2ccccc21
inactive: [2] 103 % of control | [3] 93 % of control | [4] 93 % of control

Nc1c2c(=O)[nH]c(=O)c2c(N)c2c(=O)c3ccccc3c(=O)c12
inactive: [5] 93 % of control | [6] 103 % of control | [7] 103 % of control

COc1ccc(OCC(=O)O)cc1
inactive: dose: 100.0 mg/kg/injection, schedule: Q04DX003 (ip), vehicle: saline with Tween-80 102 % of control | dose: 200.0 mg/kg/injection, schedule: Q04DX003 (ip), vehicle: saline with Tween-80 107 % of control | dose: 400.0 mg/kg/injection, schedule: Q04DX003 (ip), vehicle: saline with Tween-80 107 % of control

COc1cc2c(cc1OC)C1C(O)C(OC)C=C3CCN(C2)C31 (stereo not drawn)
inactive: [2] 100 % of control | [3] 97 % of control | [4] 103 % of control

CCCNC(=O)c1ccc(NCc2cnc3nc(N)nc(N)c3n2)cc1
inactive: dose: 100.0 mg/kg/injection, schedule: Q01DX001 (ip), vehicle: Klucel (hydroxypropylcellulose) (HPC) 92 % of control | dose: 200.0 mg/kg/injection, schedule: Q01DX001 (ip), vehicle: Klucel (hydroxypropylcellulose) (HPC) 100 % of control | dose: 400.0 mg/kg/injection, schedule: Q01DX001 (ip), vehicle: Klucel (hydroxypropylcellulose) (HPC) 98 % of control

O=C1NC2(C(=O)O1)C1CC3CC(C1)CC2C3 (stereo not drawn)
inactive: [1] 108 % of control | [8] 107 % of control | [9] 105 % of control | dose: 100.0 mg/kg/injection, schedule: Q04DX003 (ip), vehicle: alcohol 100 % of control | dose: 200.0 mg/kg/injection, schedule: Q04DX003 (ip), vehicle: alcohol 90 % of control | dose: 400.0 mg/kg/injection, schedule: Q04DX003 (ip), vehicle: alcohol 100 % of control

CCCCN(CCCC)CCP(=O)(OCC)OCC
inactive: dose: 100.0 mg/kg/injection, schedule: Q04DX002 (ip), vehicle: saline with Tween-80 97 % of control | dose: 200.0 mg/kg/injection, schedule: Q04DX002 (ip), vehicle: saline with Tween-80 105 % of control

O=C(O)CCCCCC(=O)c1ccccc1
inactive: [10] 100 % of control | [11] 118 % of control | [12] 107 % of control

CCN(CC)CCCNc1nnc2c(=O)n(C)c(=O)n(C)c2n1
inactive: dose: 75.0 mg/kg/injection, schedule: Q04DX003 (ip), vehicle: saline 112 % of control | dose: 150.0 mg/kg/injection, schedule: Q04DX003 (ip), vehicle: saline 93 % of control | dose: 300.0 mg/kg/injection, schedule: Q04DX003 (ip), vehicle: saline 100 % of control

CC1=C(CC/C(C)=C/CCC(=O)O)C(C)(C)CCC1
inactive: [9] 100 % of control | [13] 100 % of control | [14] 116 % of control | dose: 200.0 mg/kg/injection, schedule: Q01DX009 (ip), vehicle: saline 98 % of control | [15] 100 % of control | [16] 111 % of control

CC(=O)CC(C)=NCCN=C(C)CC(C)=O
inactive: dose: 100.0 mg/kg/injection, schedule: Q01DX009 (ip), vehicle: saline with Tween-80 91 % of control | dose: 200.0 mg/kg/injection, schedule: Q01DX009 (ip), vehicle: saline with Tween-80 94 % of control | dose: 400.0 mg/kg/injection, schedule: Q01DX009 (ip), vehicle: saline with Tween-80 92 % of control

Nc1ncnn1C(=S)NCc1ccccc1
inactive: [13] 100 % of control | [14] 89 % of control | [15] 90 % of control | [16] 88 % of control

Nn1cnnc1
inactive: [8] 93 % of control | [9] 103 % of control | [13] 86 % of control and 88 % of control | [14] 104 % of control | [15] 96 % of control | [16] 102 % of control

O=P(O)(c1cccc(Cl)c1)c1cccc(Cl)c1
inactive: [5] 91 % of control | dose: 100.0 mg/kg/injection, schedule: Q04DX003 (ip), vehicle: acetone 97 % of control | [6] 96 % of control | dose: 200.0 mg/kg/injection, schedule: Q04DX003 (ip), vehicle: acetone 107 % of control | [7] 91 % of control | dose: 400.0 mg/kg/injection, schedule: Q04DX003 (ip), vehicle: acetone 97 % of control

Cc1cc(NC(=O)c2ccc(C(=O)Nc3ccc(C4=NCCN4)c(C)c3)cc2)ccc1C1=NCCN1
inactive: dose: 48.0 mg/kg/injection, schedule: Q01DX Z (ip), vehicle: carboxymethylcellulose (CMC) 109 % of control | dose: 72.0 mg/kg/injection, schedule: Q01DX Z (ip), vehicle: carboxymethylcellulose (CMC) 122 % of control | dose: 100.0 mg/kg/injection, schedule: Q01DX Z (oral), vehicle: water 92 % of control | dose: 200.0 mg/kg/injection, schedule: Q01DX Z (oral), vehicle: water 107 % of control | dose: 250.0 mg/kg/injection, schedule: Q01DX Z (ip), vehicle: carboxymethylcellulose (CMC) 108 % of control and 112 % of control | dose: 375.0 mg/kg/injection, schedule: Q01DX Z (ip), vehicle: carboxymethylcellulose (CMC) 92 % of control | dose: 400.0 mg/kg/injection, schedule: Q01DX Z (oral), vehicle: water 92 % of control | dose: 800.0 mg/kg/injection, schedule: Q01DX Z (oral), vehicle: water 102 % of control
active: dose: 110.0 mg/kg/injection, schedule: Q01DX Z (ip), vehicle: carboxymethylcellulose (CMC) 150 % of control and 277 % of control | dose: 168.0 mg/kg/injection, schedule: Q01DX Z (ip), vehicle: carboxymethylcellulose (CMC) 164 % of control

CC(=O)C(Cl)C(C)=O.CC(=O)CC(C)=O.CC(=O)CC(C)=O.[Rh]
inactive: dose: 50.0 mg/kg/injection, schedule: Q01DX001 (ip), vehicle: other 108 % of control | dose: 100.0 mg/kg/injection, schedule: Q01DX001 (ip), vehicle: other 102 % of control | dose: 200.0 mg/kg/injection, schedule: Q01DX001 (ip), vehicle: other 98 % of control | dose: 400.0 mg/kg/injection, schedule: Q01DX001 (ip), vehicle: other 98 % of control

CCCCNC(=S)NNC(=O)c1ccncc1
inactive: [10] 107 % of control | [11] 95 % of control and 105 % of control | [12] 96 % of control and 98 % of control

CC(CCc1ccc(OC(=O)c2ccccc2)cc1)OC(=O)c1ccccc1 (stereo not drawn)
inactive: dose: 50.0 mg/kg/injection, schedule: Q01DX001 (ip), vehicle: saline 101 % of control | [2] 95 % of control | [3] 98 % of control | [4] 95 % of control

CONP(=O)(Oc1ccccc1)Oc1ccccc1
inactive: dose: 100.0 mg/kg/injection, schedule: Q01DX001 (ip), vehicle: carboxymethylcellulose (CMC) 95 % of control | dose: 200.0 mg/kg/injection, schedule: Q01DX001 (ip), vehicle: carboxymethylcellulose (CMC) 95 % of control | dose: 400.0 mg/kg/injection, schedule: Q01DX001 (ip), vehicle: carboxymethylcellulose (CMC) 97 % of control
